Values quoted from earlier work as cited in patent US12697315B2, “Treatment for interstitial lung disease” (United Therapeutics Corporation, priority 2020, dated 2026).
Read-outs that look alike come from different tables or passages of the source.

Test system: IPF
Conditions: 52 weeks, cited from earlier work

Structure (SMILES) | FVC, placebo corrected, rate of decline (pirfenidone) [mL] | FVC % predicted, placebo corrected, rate of decline [% predicted] | FVC, placebo corrected, rate of decline
Cc1ccc(=O)n(-c2ccccc2)c1 [Pirfenidone, pirfenidone] | 153 to 193 |  | 
COC(=O)c1ccc2c(c1)NC(=O)/C2=C(\Nc1ccc(N(C)C(=O)CN2CCN(C)CC2)cc1)c1ccccc1 [Nintedanib, nintedanib] |  | 3.2 | ~ 109 mL
